# Test results: patent US9096581B2, “Fluoroethyl thiamine or salts thereof and application thereof in preparation of anticoccidial drugs” (GUANGZHOU ORIGMOL FEED-ADDITIVE CO., LTD, priority 2012, dated 2015)
# “Also recorded” adds a separate entry of the source. Counter-ions that a name gives are not always drawn.
# Key:
# Format in all cases: in vivo
# [1] = system: Eimeria tenella GD strains; assay: Comparison with other anticoccidial drugs in chickens infected with Eimeria tenella GD (Embodiment 3); parameters: oocyst value: scale not given here; settings: for anticoccidial index (ACI) / number of oocysts in cecum / lesion value / survival rate / average weight gain / bloody feces scoring / oocyst value / relative weight gain rate: 125 ppm in feed; for number of oocysts in cecum / lesion value / average weight gain: 7th day; for lesion value: cecum, scale 0-40; for survival rate / average weight gain / bloody feces scoring: chickens; for bloody feces scoring: 5 days after infecting, score 0-4; for oocyst value: converted per Table 2; for relative weight gain rate: vs non-infected non-drug control
# Excerpt: 1-day-old Lingnan yellow chickens, purchased from Poultry Research Unit, Bureau of Animal Husbandry, Guangdong Academy of Agricultural Sciences, bred under coccidium-free environment, and subjected to experiment after no coccidium oocyst is found in feces through microscopic examination when the chickens are 14 days old. Perfect compound feed for chickens: prepared by Huizhou Yuantai Feed Co. Ltd., and containing no antibacterial or anticoccidial additive.
# Eimeria tenella GD strains, having no resistance to various anticoccidial drugs. Breeding and amplifying in one chicken before the experiment, collecting fresh oocysts, sporulating, and preserving at 4° C. for later use.
# Weighing the 14-day-old experiment chickens one by one, rejecting emaciated chickens or overweighted chickens, selecting healthy chickens of which the individual body weight difference is within 20 g, and dividing into 6 groups with 30 chickens in each group. Groups 1 and 2 are respectively a non-drug-applied and non-coccidium-killed control group and a coccidium-infected and non-drug-applied control group, and Groups 3-6 are respectively added with different anticoccidial drugs according to Table 4. Feeding with feed containing different drugs on the day of experiment grouping, enabling the chickens to freely take in the feed, and feeding the chickens until the experiment ends.
# Except the non-coccidium-infected and non-drug-applied control group, giving each experiment chicken in each experiment group with 2.5×10^5 eimeria tenella sporulated oocysts via the crop on next day of the grouping day. During experiment, observing and recording the spirit, appetite, bloody feces situation, death count and the like of the chickens every day. Performing bloody feces scoring on the chickens in each group 5 days after infecting. On the 7th day, respectively weighing all the chickens in each group, then autopsying them, observing cecum lesions and counting the oocysts in the cecum.
# The evaluation standard is the same with Embodiment 2.
# Eimeria acervulina HT = assay: Anticoccidial effect on Eimeria acervulina in chickens (Embodiment 5); settings: 125 ppm in feed; for average weight gain / number of oocysts in feces: 7th day after infecting; for survival rate: chickens; for relative decrement rate of oocysts: vs infected non-drug control; for relative weight gain rate: vs non-infected non-drug control
# Excerpt: (§1) 1-day-old Lingnan yellow chickens, purchased from Poultry Research Unit, Bureau of Animal Husbandry, Guangdong Academy of Agricultural Sciences, bred under coccidium-free environment, and subjected to grouping and experiment after no coccidium oocyst is found in feces through microscopic examination when the chickens are 14 days old.
# Eimeria acervulina HT, having no resistance to various anticoccidial drugs. Breeding and amplifying in chickens before the experiment, collecting fresh eggs, sporulating, and preserving at 4° C. for later use.
# (§2) Weighing the 14-day-old experiment chickens one by one, rejecting emaciated chickens or overweighted chicks, selecting healthy chickens of which the individual body weight difference is within 20 g, and dividing to 4 groups with 30 chickens in each group. Groups 1 and 2 are respectively a non-drug-applied and non-coccidium-killed control group and a coccidium-infected and non-drug-applied control group, and Groups 3 and 4 are added with fluoroethyl thiamine hydrochloride or amprolium according to Table 8. Feeding with feed containing different drugs on the day of experiment grouping, enabling the chickens to freely take in the feed, and feeding the chickens until the experiment ends.
# Except the non-coccidium-infected and non-drug-applied control group, giving each experiment chicken in each experiment group with 5×10^5 eimeria acervulina sporulated oocysts via the crop on the next day of the grouping day. During experiment, observing and recording the spirit, appetite, bloody feces situation, death count and the like of the chickens every day. On the 7th day after infecting, respectively weighing each group, calculating the relative weight gain rate, simultaneously collecting feces samples, and counting the number of oocysts per gram of feces.
# 2.3.1 Weight gain: respectively weighing each chicken when the experiment starts and ends, and calculating the average weight gain and relative weight gain rate. The relative weight gain rate=(the average weight gain in the experiment groups/the average weight gain in the non-infected and non-drug-applied control group)×100%.
# 2.3.2 Survival rate: recording the number of dead chickens of each group, autopsying to determine the death cause, and calculating the survival rate. The survival rate=(the total number of the chickens in the experiment groups−the number of the chickens dying of coccidium infection during the experiment)/the total number of the chickens in the experiment groups×100%.
# 2.3.3 oocyst counting and relative decrement rate of oocysts: on the 7th day after coccidium infection, digesting the collected fresh feces with 10% sodium hypochlorite for 15 min, counting the number of the coccidium oocysts per gram of feces through a blood counting chamber, and calculating the relative decrement rate of the oocysts in the feces of each experiment group. The relative decrement rate of oocysts=(the number of the oocysts per gram of feces in the coccidium-killed and non-drug-applied control group−the number of the oocysts per gram of feces in the experiment groups)/the number of the oocysts per gram of feces in the coccidium-killed and non-drug-applied control group×100%.
# [2] = system: Eimeria maxima PY strains; assay: Anticoccidial effect on Eimeria maxima in chickens (Embodiment 6); settings: 125 ppm in feed; for average weight gain / number of oocysts in feces: 7th day after infecting; for survival rate: chickens; for relative decrement rate of oocysts: vs infected non-drug control; for relative weight gain rate: vs non-infected non-drug control
# Excerpt: as §1
# Eimeria maxima PY strains, having no resistance to various anticoccidial drugs. Breeding and amplifying in chickens before the experiment, collecting fresh oocysts, sporulating, and preserving at 4° C. for later use.
# as §2, with “chickens,” for “chicks,”, “10.” for “8.”, “in” for “in the”
# Except the non-coccidium-infected and non-drug-applied control group, giving each experiment chicken in each experiment group with 3×10^5 eimeria maxima sporulated oocysts via the crop on the next day of the grouping day. During experiment, observing and recording the spirit, appetite, bloody feces situation, death count and the like of the chickens every day. On the 7th day after infecting, respectively weighing each group, calculating the relative weight gain rate, simultaneously collecting feces samples, and counting the number of oocysts per gram of feces.
# The anticoccidial effect evaluation is the same with Embodiment 5.
Compound,anticoccidial index (ACI) [1],number of oocysts in cecum [1],lesion value [1],survival rate [1] [%],average weight gain [1] [g/chicken],bloody feces scoring [1],oocyst value [1],relative weight gain rate [1] [%],average weight gain (Eimeria acervulina HT) [g],number of oocysts in feces (Eimeria acervulina HT) [g⁻¹],survival rate (Eimeria acervulina HT) [%],relative decrement rate of oocysts (Eimeria acervulina HT) [%],relative weight gain rate (Eimeria acervulina HT) [%],average weight gain [2] [g],number of oocysts in feces [2] [g⁻¹],survival rate [2] [%],relative decrement rate of oocysts [2] [%],relative weight gain rate [2] [%],also measured
"CCCc1ncc(C[n+]2ccccc2C)c(N)n1 [amprolium, Amprolium, reference compound]",191.2,0.566 ×10^6/chicken,4,100,166.3,0,1,96.2,166.6,29800,100,88.8,86.4,167.4,8600,100,79.5,93.1,–
"CCc1ncc(C[n+]2csc(CCF)c2C)c(N)n1 [fluoroethyl thiamine hydrochloride, 3-[(4-amino-2-ethyl-5-pyrimidyl)-methylene]-5-(2-fluoroethyl)-4-methyl thiazole chloride hydrochloride]",201.6,0 ×10^6/chicken,0,100,175.6,0,0,101.6,186.5,6500,100,97.6,96.7,176.3,3700,100,91.2,98.0,"comparison with the other anticoccidial drugs ([1]; 125 ppm in feed (maduramicin 5 ppm), hydrochloride): superior to amprolium and maduramicin in lesion and oocyst value; also recorded: superior to nicarbazin in weight gain; inhibition of eimeria acervulina, in words (Eimeria acervulina HT; hydrochloride): significant inhibition effect on the eimeria acervulina; also recorded: superior to amprolium in eimeria acervulina inhibition; inhibition of eimeria maxima, in words ([2]; hydrochloride): significant inhibition effect on eimeria maxima; also recorded: superior to amprolium in eimeria maxima inhibition"
